ChEMBL document CHEMBL5465560, “Selectivity Literature for EUbOPEN Chemogenomic Library” (2024)

Columns and labels:
[1] = biological target: T1, Mitogen-activated protein kinase kinase kinase kinase 2 (Homo sapiens) (UniProt Q12851); assay: Selectivity interaction (Kinase panel (KiNativ target engagement assay in Jurkat cells)) EUB0001635a MAP4K2; assay type: cell-based; settings: Selectivity number of off-targets 0.0, Selectivity number of targets 233.0, Source Knowledge https://www.sciencedirect.com/science/article/pii/S2451945619300674?via%3Dihub, at 1 µM
T1 sequence (whole entry): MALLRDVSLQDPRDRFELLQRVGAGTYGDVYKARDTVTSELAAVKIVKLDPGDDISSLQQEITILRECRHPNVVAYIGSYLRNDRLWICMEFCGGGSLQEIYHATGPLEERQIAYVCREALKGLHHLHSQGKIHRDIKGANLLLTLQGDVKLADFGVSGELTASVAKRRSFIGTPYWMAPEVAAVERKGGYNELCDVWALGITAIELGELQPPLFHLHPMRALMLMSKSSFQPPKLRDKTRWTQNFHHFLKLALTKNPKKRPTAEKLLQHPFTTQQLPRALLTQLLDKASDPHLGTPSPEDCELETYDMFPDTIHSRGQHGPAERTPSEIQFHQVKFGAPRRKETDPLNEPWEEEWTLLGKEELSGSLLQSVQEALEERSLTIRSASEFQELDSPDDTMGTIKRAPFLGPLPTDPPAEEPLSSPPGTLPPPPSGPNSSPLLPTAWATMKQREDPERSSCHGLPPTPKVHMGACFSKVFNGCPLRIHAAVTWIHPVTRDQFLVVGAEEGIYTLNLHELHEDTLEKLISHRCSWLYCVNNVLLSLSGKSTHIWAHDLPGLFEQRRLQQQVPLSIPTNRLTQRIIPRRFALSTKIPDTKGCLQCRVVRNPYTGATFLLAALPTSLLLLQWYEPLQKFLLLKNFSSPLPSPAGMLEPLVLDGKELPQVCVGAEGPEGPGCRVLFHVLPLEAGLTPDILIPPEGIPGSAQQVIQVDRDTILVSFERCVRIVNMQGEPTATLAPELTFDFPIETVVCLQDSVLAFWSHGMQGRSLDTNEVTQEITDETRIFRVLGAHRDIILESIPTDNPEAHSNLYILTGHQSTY

[2] = biological target: T2, Serine/threonine-protein kinase Nek9 (Homo sapiens) (UniProt Q8TD19); assay: Selectivity interaction (KinomeScan (DiscoverX)) EUB0000666a NEK9; settings: at 10 µM
T2 sequence (whole entry): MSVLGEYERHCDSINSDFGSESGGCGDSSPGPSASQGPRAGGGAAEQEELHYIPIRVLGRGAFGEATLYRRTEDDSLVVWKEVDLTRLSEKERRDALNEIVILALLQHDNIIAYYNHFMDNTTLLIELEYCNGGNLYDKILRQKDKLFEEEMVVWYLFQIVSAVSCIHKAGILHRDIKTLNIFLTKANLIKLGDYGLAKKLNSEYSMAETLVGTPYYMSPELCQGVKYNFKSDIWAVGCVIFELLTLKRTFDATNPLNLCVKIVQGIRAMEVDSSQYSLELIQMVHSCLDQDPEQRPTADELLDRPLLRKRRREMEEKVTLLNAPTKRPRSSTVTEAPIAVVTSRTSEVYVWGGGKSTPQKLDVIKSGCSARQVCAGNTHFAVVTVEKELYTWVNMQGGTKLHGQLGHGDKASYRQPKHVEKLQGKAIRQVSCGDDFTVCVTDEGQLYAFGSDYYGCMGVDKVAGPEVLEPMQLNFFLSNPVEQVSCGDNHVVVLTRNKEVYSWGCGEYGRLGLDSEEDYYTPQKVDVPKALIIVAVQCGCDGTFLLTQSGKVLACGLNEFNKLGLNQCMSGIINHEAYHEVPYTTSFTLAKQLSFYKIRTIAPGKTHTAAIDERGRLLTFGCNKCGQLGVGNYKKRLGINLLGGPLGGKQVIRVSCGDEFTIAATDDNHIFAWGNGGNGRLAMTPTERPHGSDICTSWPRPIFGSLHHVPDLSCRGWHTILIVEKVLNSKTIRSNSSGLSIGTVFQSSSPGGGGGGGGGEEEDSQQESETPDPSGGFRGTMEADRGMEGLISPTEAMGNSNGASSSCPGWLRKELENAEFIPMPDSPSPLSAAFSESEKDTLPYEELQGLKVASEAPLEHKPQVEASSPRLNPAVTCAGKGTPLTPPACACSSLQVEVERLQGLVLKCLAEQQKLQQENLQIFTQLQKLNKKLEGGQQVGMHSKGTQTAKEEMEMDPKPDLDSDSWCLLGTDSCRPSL

[3] = biological target: Serine/threonine-protein kinase 16 (Homo sapiens, UniProt O75716); assay: Selectivity interaction (ActivX KiNativ screen (kinase selectivity in THP-1 cell lysates)) EUB0000639a STK16; assay type: subcellular; settings: lysate, at 1 µM
SRSF protein kinase 1 = SRSF protein kinase 1 (Homo sapiens, UniProt Q96SB4); assay: Selectivity interaction (KinomeScan (DiscoverX)) EUB0000655a SRPK1; settings: at 10 µM
SRSF protein kinase 1, sequence (Q96SB4 whole entry): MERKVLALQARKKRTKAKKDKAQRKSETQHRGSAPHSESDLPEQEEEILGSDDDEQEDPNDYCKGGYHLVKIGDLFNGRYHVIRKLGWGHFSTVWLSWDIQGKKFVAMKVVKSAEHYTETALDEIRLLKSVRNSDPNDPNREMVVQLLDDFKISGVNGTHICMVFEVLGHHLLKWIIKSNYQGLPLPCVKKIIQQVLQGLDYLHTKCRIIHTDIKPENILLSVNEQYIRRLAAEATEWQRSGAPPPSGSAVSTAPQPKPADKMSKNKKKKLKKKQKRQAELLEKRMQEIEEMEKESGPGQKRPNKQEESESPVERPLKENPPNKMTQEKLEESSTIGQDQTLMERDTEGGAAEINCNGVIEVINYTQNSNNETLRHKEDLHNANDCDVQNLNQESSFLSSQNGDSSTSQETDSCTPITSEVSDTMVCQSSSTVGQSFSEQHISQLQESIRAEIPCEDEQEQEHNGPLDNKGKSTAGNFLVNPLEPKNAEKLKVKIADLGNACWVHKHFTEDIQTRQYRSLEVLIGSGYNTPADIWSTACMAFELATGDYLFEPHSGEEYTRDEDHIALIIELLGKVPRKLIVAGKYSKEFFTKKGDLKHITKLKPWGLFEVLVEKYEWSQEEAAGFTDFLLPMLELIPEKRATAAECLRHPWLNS

Serine/threonine-protein kinase 16, sequence (O75716 whole entry): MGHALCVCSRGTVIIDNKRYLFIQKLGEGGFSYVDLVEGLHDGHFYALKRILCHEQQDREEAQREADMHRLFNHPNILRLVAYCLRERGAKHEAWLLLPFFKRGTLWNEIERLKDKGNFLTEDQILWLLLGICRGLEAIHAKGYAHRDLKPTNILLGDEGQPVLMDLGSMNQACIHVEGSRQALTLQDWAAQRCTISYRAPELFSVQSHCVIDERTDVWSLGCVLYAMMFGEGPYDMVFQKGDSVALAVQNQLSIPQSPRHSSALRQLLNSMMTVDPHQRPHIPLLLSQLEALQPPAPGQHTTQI

`C=CC(=O)Nc1ccc(C(=O)Nc2[nH]nc3c2CN(C(=O)N[C@H](CN(C)C)c2ccccc2)C3(C)C)cc1` was tested. Which % of engagement [1] did it give?
Its % of engagement is -14.9%.

How did the % of control [2] turn out when `O=C(NOC[C@H](O)CO)c1ccc(F)c(F)c1Nc1ccc(I)cc1F` was run?
The % of control was 82%.

For `CC[C@@H]1[C@H](F)C(=O)N[C@@H]1COc1nccc2cc(C(N)=O)c(OC)cc12` [ZIMLOVISERTIB], which % of inhibition [3] is on record?
Its % of inhibition is 58.6%.

`CN(C)CCOc1ccc(-c2nc(-c3ccncc3)c(-c3ccc4c(c3)CC/C4=N\O)[nH]2)cc1` was tested. Which % of control (SRSF protein kinase 1) did it give?
Its % of control is 86%.
